According to US11214594B2, “Antimicrobial peptide having synergistic antibacterial effect with antibiotics on multidrug resistant bacteria, and use thereof” (priority 2016, dated 2022):
Values after ≈ are worked out from the molar mass of the structure shown. Where a SMILES comes first, the peptide text is derived from it. [ ]: non-standard residue; d: D form.

Key:
MDRST 8007 = experiment: Minimal inhibitory concentration (MIC), single agent; assay type: cell-based, Salmonella typhimurium; details: agent alone
Method in brief: (§1)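 Broth microdilution in MH medium: bacterial strains diluted to 2×10^6 CFU were mixed with equal volumes of peptide serially diluted twofold in MH medium.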

E. coli [1] = experiment: MIC of antibiotic during combined treatment with antimicrobial peptide; assay type: cell-based, Escherichia coli; details: for Antibiotic MIC, Erythromycin / Antibiotic MIC, Linezolid / Antibiotic MIC, Vancomycin: E. coli
Method in brief: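 Checkerboard-type MIC of peptide–antibiotic mixtures in MH medium: the antibiotic was serially diluted in MH medium and added to wells, then the reversed arrangement was also tested.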

S. aureus = experiment: microbe, parasite or virus in culture; assay type: cell-based, Staphylococcus aureus
Method in brief: as §1

S. epidermidis = experiment: microbe, parasite or virus in culture; assay type: cell-based, Staphylococcus epidermidis
Method in brief: as §1

MRSA 3114 = assay type: cell-based, Staphylococcus aureus; details: 3114
Method in brief: as §1

MRSA 3126 = assay type: cell-based, Staphylococcus aureus; details: 3126
Method in brief: as §1

MDRST 8009 = assay type: cell-based, Salmonella typhimurium; details: agent alone
Method in brief: as §1

S. typhimurium = experiment: microbe, parasite or virus in culture; assay type: cell-based, Salmonella typhimurium
Method in brief: as §1

P. aeruginosa = experiment: microbe, parasite or virus in culture; assay type: cell-based, Pseudomonas aeruginosa
Method in brief: as §1

MDRAB 12036 = assay type: cell-based, Acinetobacter baumannii
Method in brief: as §1

MDREC 1229 [2] = experiment: MIC of antibiotic during combined treatment with antimicrobial peptide; assay type: cell-based, Escherichia coli
Method in brief: (§2)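 Strains in MH medium at 2×10^6 CFU/ml were mixed with peptide diluted stepwise (2:1) from its MIC, then antibiotic dilutions in MH medium were added to give the antibiotic MIC. The reversed set-up, peptide titrated against fixed antibiotic, gave the peptide MIC.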

MDREC 1238 = assay type: cell-based, Escherichia coli
Method in brief: as §1

A. baumannii = experiment: MIC of antimicrobial peptide during combined treatment with antibiotic; assay type: cell-based, Acinetobacter baumannii
Method in brief: as §2

MDRAB 12035 = experiment: as above; assay type: cell-based, Acinetobacter baumannii
Method in brief: as §2

E. coli [3] = experiment: microbe, parasite or virus in culture; assay type: cell-based, Escherichia coli; details: 16 h
Method in brief: as §1

MDREC 1229 [4] = experiment: microbe, parasite or virus in culture; assay type: cell-based, Escherichia coli
Method in brief: as §1

[5] = peptide treatment concentration 1 μg/ml
[6] = peptide treatment concentration 2 μg/ml
[7] = peptide treatment concentration 4 μg/ml
[8] = peptide treatment concentration 6 μg/ml
[9] = peptide treatment concentration 8 μg/ml
[10] = peptide treatment concentration 16 μg/ml
[11] = peptide treatment concentration 32 μg/ml
[12] = peptide treatment concentration 64 μg/ml
[13] = erythromycin 4 μg/ml (Conc./MIC 1/8)
[14] = erythromycin 8 μg/ml (Conc./MIC 1/4)
[15] = erythromycin 16 μg/ml (Conc./MIC 1/2)
[16] = erythromycin 32 μg/ml (Conc./MIC 1)
[17] = vancomycin 512 μg/ml (Conc./MIC 1/2)
[18] = vancomycin 1024 μg/ml (Conc./MIC 1)

`CC[C@H](C)[C@H](NC(=O)[C@H](CCCCN)NC(=O)[C@H](Cc1c[nH]c2ccccc12)NC(=O)[C@@H](N)CCCNC(=N)N)C(=O)N[C@@H](Cc1ccccc1)C(=O)N[C@@H](CCCCN)C(=O)N[C@@H](CCCCN)C(=O)N[C@H](C(=O)N[C@H](CC(C)C)C(=O)N[C@@H](CCCCN)C(=O)N[C@@H](CC(C)C)C(=O)N[C@@H](CC(C)C)C(=O)N[C@@H](Cc1c[nH]cn1)C(=O)N[C@@H](CCCCN)C(=O)N[C@@H](C)C(=O)N[C@@H](CCCCN)C(=O)N[C@@H](CCCCN)C(=O)N[C@@H](Cc1c[nH]c2ccccc12)C(N)=O)[C@@H](C)CC` [PapMA-22, RWK IFK KIl KLL HKA KKW-NH2] (H-RWKIFKKI[dL]KLLHKAKKW-NH2; N-terminus assumed) was tested, and the “Minimal inhibitory concentration MIC” value (MDRST 8007) was 32 µg/mL (≈ 13.5 µM), the “Synergistic effect of antibacterial activity with existing antibiotics compared with PapMA-1” value (E. coli [1]; E. coli and MDREC1229) was “level similar to that of the PapMA-1 peptide” and the “Antibiotic MIC, Erythromycin” value (E. coli [1]; erythromycin combined with peptide at 1 μg/ml) was 128 µg/mL. For the same compound, the “Antibiotic MIC, Erythromycin” value (E. coli [1]; erythromycin combined with peptide at 2 μg/ml) was 32 µg/mL, the “Antibiotic MIC, Erythromycin” value (E. coli [1]; erythromycin combined with peptide at 4 μg/ml) was 16 µg/mL and the “Antibiotic MIC, Erythromycin” value (E. coli [1]; erythromycin combined with peptide at 6 μg/ml) was 8 µg/mL. The “Antibiotic MIC, Erythromycin” value (E. coli [1]; erythromycin combined with peptide at 8 μg/ml) was 2 µg/mL, the “Antibiotic MIC, Erythromycin” value (E. coli [1]; erythromycin combined with peptide at 16 μg/ml) was 1 µg/mL and the “Antibiotic MIC, Erythromycin” value (E. coli [1]; erythromycin combined with peptide at 32 μg/ml) was 0 µg/mL. For the same compound, the “Antibiotic MIC, Erythromycin” value (E. coli [1]; erythromycin combined with peptide at 64 μg/ml) was 0 µg/mL, the “Antibiotic MIC, Linezolid” value (E. coli [1]; linezolid combined with peptide at 1 μg/ml) was >128 µg/mL and the “Antibiotic MIC, Linezolid” value (E. coli [1]; linezolid combined with peptide at 2 μg/ml) was 128 µg/mL. The “Antibiotic MIC, Linezolid” value (E. coli [1]; linezolid combined with peptide at 4 μg/ml) was 64 µg/mL, the “Antibiotic MIC, Linezolid” value (E. coli [1]; linezolid combined with peptide at 6 μg/ml) was 32 µg/mL and the “Antibiotic MIC, Linezolid” value (E. coli [1]; linezolid combined with peptide at 8 μg/ml) was 32 µg/mL. For the same compound, the “Antibiotic MIC, Linezolid” value (E. coli [1]; linezolid combined with peptide at 16 μg/ml) was 16 µg/mL, the “Antibiotic MIC, Linezolid” value (E. coli [1]; linezolid combined with peptide at 32 μg/ml) was 0 µg/mL and the “Antibiotic MIC, Linezolid” value (E. coli [1]; linezolid combined with peptide at 64 μg/ml) was 0 µg/mL. For the same compound, the “Antibiotic MIC, Vancomycin” value (E. coli [1]; vancomycin combined with peptide at 1 μg/ml) was >128 µg/mL, the “Antibiotic MIC, Vancomycin” value (E. coli [1]; vancomycin combined with peptide at 2 μg/ml) was >128 µg/mL and the “Antibiotic MIC, Vancomycin” value (E. coli [1]; vancomycin combined with peptide at 4 μg/ml) was 128 µg/mL. For the same compound, the “Antibiotic MIC, Vancomycin” value (E. coli [1]; vancomycin combined with peptide at 6 μg/ml) was 64 µg/mL, the “Antibiotic MIC, Vancomycin” value (E. coli [1]; vancomycin combined with peptide at 8 μg/ml) was 32 µg/mL and the “Antibiotic MIC, Vancomycin” value (E. coli [1]; vancomycin combined with peptide at 16 μg/ml) was 16 µg/mL. For the same compound, the “Antibiotic MIC, Vancomycin” value (E. coli [1]; vancomycin combined with peptide at 32 μg/ml) was 0 µg/mL, the “Antibiotic MIC, Vancomycin” value (E. coli [1]; vancomycin combined with peptide at 64 μg/ml) was 0 µg/mL and the “Minimal inhibitory concentration MIC” value (S. aureus) was >128 µg/mL. The “Minimal inhibitory concentration MIC” value (S. epidermidis) was >128 µg/mL, the “Minimal inhibitory concentration MIC” value (MRSA 3114) was >128 µg/mL and the “Minimal inhibitory concentration MIC” value (MRSA 3126) was >128 µg/mL. For the same compound, the “Minimal inhibitory concentration MIC” value (MDRST 8009) was 32 µg/mL (≈ 13.5 µM), the “Minimal inhibitory concentration MIC” value (S. typhimurium) was 32 µg/mL (≈ 13.5 µM) and the “Minimal inhibitory concentration MIC” value (P. aeruginosa) was 16 µg/mL (≈ 6.77 µM). The “Minimal inhibitory concentration MIC” value (MDRAB 12036) was 32 µg/mL (≈ 13.5 µM), the “Antibiotic MIC, Erythromycin” value (MDREC 1229 [2]; [5]) was 128 µg/mL and the “Antibiotic MIC, Linezolid” value (MDREC 1229 [2]; [5]) was >128 µg/mL. The “Antibiotic MIC, Vancomycin” value (MDREC 1229 [2]; [5]) was >128 µg/mL, the “Antibiotic MIC, Erythromycin” value (MDREC 1229 [2]; [6]) was 32 µg/mL and the “Antibiotic MIC, Linezolid” value (MDREC 1229 [2]; [6]) was >128 µg/mL. The “Antibiotic MIC, Vancomycin” value (MDREC 1229 [2]; [6]) was >128 µg/mL, the “Antibiotic MIC, Erythromycin” value (MDREC 1229 [2]; [7]) was 32 µg/mL and the “Antibiotic MIC, Linezolid” value (MDREC 1229 [2]; [7]) was 128 µg/mL. The “Antibiotic MIC, Vancomycin” value (MDREC 1229 [2]; [7]) was >128 µg/mL, the “Antibiotic MIC, Erythromycin” value (MDREC 1229 [2]; [8]) was 16 µg/mL and the “Antibiotic MIC, Linezolid” value (MDREC 1229 [2]; [8]) was 64 µg/mL. For the same compound, the “Antibiotic MIC, Vancomycin” value (MDREC 1229 [2]; [8]) was >128 µg/mL, the “Antibiotic MIC, Erythromycin” value (MDREC 1229 [2]; [9]) was 4 µg/mL and the “Antibiotic MIC, Linezolid” value (MDREC 1229 [2]; [9]) was 32 µg/mL. The “Antibiotic MIC, Vancomycin” value (MDREC 1229 [2]; [9]) was 64 µg/mL, the “Antibiotic MIC, Erythromycin” value (MDREC 1229 [2]; [10]) was 2 µg/mL and the “Antibiotic MIC, Linezolid” value (MDREC 1229 [2]; [10]) was 16 µg/mL. For the same compound, the “Antibiotic MIC, Vancomycin” value (MDREC 1229 [2]; [10]) was 32 µg/mL, the “Antibiotic MIC, Erythromycin” value (MDREC 1229 [2]; [11]) was 0 µg/mL and the “Antibiotic MIC, Linezolid” value (MDREC 1229 [2]; [11]) was 0 µg/mL. For the same compound, the “Antibiotic MIC, Vancomycin” value (MDREC 1229 [2]; [11]) was 0 µg/mL, the “Antibiotic MIC, Erythromycin” value (MDREC 1229 [2]; [12]) was 0 µg/mL and the “Antibiotic MIC, Linezolid” value (MDREC 1229 [2]; [12]) was 0 µg/mL. The “Antibiotic MIC, Vancomycin” value (MDREC 1229 [2]; [12]) was 0 µg/mL, the “Minimal inhibitory concentration MIC” value (MDREC 1238) was 32 µg/mL (≈ 13.5 µM) and the “Peptide MIC during treatment with erythromycin” value (A. baumannii; [13]) was 8 µg/mL. For the same compound, the “Peptide MIC during treatment with erythromycin” value (A. baumannii; [14]) was 4 µg/mL, the “Peptide MIC during treatment with erythromycin” value (A. baumannii; [15]) was 4 µg/mL and the “Peptide MIC during treatment with erythromycin” value (A. baumannii; [16]) was 0 µg/mL. For the same compound, the “Peptide MIC during treatment with linezolid” value (A. baumannii; linezolid 32 μg/ml (Conc./MIC 1/8)) was 4 µg/mL, the “Peptide MIC during treatment with linezolid” value (A. baumannii; linezolid 64 μg/ml (Conc./MIC 1/4)) was 4 µg/mL and the “Peptide MIC during treatment with linezolid” value (A. baumannii; linezolid […] (Conc./MIC 1)) was 0 µg/mL. For the same compound, the “Peptide MIC during treatment with linezolid” value (A. baumannii; linezolid […] (Conc./MIC 1/2)) was 1 µg/mL, the “Peptide MIC during treatment with vancomycin” value (A. baumannii; [17]) was 0.25 µg/mL and the “Peptide MIC during treatment with vancomycin” value (A. baumannii; [18]) was 0 µg/mL. The “Peptide MIC during treatment with vancomycin” value (A. baumannii; vancomycin […] (Conc./MIC 1/4)) was 0.5 µg/mL, the “Peptide MIC during treatment with vancomycin” value (A. baumannii; vancomycin […] (Conc./MIC 1/8)) was 2 µg/mL and the “Peptide MIC during treatment with erythromycin” value (MDRAB 12035; [13]) was 8 µg/mL. The “Peptide MIC during treatment with erythromycin” value (MDRAB 12035; [14]) was 8 µg/mL, the “Peptide MIC during treatment with erythromycin” value (MDRAB 12035; [15]) was 4 µg/mL and the “Peptide MIC during treatment with erythromycin” value (MDRAB 12035; [16]) was 0 µg/mL. For the same compound, the “Peptide MIC during treatment with linezolid” value (MDRAB 12035; linezolid 64 μg/ml (Conc./MIC 1/8)) was 4 µg/mL, the “Peptide MIC during treatment with linezolid” value (MDRAB 12035; linezolid 512 μg/ml (Conc./MIC 1)) was 0 µg/mL and the “Peptide MIC during treatment with linezolid” value (MDRAB 12035; linezolid […] (Conc./MIC 1/2)) was 1 µg/mL. For the same compound, the “Peptide MIC during treatment with linezolid” value (MDRAB 12035; linezolid […] (Conc./MIC 1/4)) was 4 µg/mL, the “Peptide MIC during treatment with vancomycin” value (MDRAB 12035; [17]) was 4 µg/mL and the “Peptide MIC during treatment with vancomycin” value (MDRAB 12035; [18]) was 1 µg/mL. The “Peptide MIC during treatment with vancomycin” value (MDRAB 12035; vancomycin […] (Conc./MIC 1/4)) was 4 µg/mL, the “Peptide MIC during treatment with vancomycin” value (MDRAB 12035; vancomycin […] (Conc./MIC 1/8)) was 4 µg/mL and the “Minimal inhibitory concentration MIC” value (E. coli [3]) was 32 µg/mL (≈ 13.5 µM). The “Minimal inhibitory concentration MIC” value (MDREC 1229 [4]) was 32 µg/mL (≈ 13.5 µM) and the “Peptide MIC, peptide alone” value (MDREC 1229 [4]) was 32 µg/mL.
